From US20050064501A1, “Medicaments comprising inhibitors of the cell volume-regulated human kinase h-sgk” (PROF. DR. MED. F. LANG, priority 1999, published 2005) come the findings set out here.

Entries after “also recorded” stand apart in the source; their conditions may differ.

In one assay the test system is h-sgk expression. The assay can be described thus: Transcriptional regulation of h-sgk (Northern blot). The class given is cell-based. Conditions: FIG. 1; TGFβ1 effect shown after 0.5 to 6 h. The procedure:
(§1) Cells were cultivated in RPMI/5% CO2/10 mM glucose at 37° C., pH 7.4, supplemented with 10% (vol/vol) fetal calf serum (FCS). The cells were grown to 90% confluence and then homogenized in TRIZOL (GIBCO/BRL) (about 0.4×10^6 per sample). Total RNA was prepared in accordance with the manufacturer's instructions. Northern blots were fractionated by electrophoresis through 10 g/l agarose gels with 15 or 20 μg of total RNA with separate control in the presence of 2.4 mol/l formaldehyde. RNA was transferred by vacuum (Appligene Oncor Trans DNA Express Vacuum Blotter, Appligine, Heidelberg, Germany) to positively charged nylon membranes (Boehringer Mannheim, Germany) and crosslinked under ultraviolet light (UV Stratalinker 2400, Stratagene, Heidelberg, Germany). Hybridization was carried out over night with DIG-Easy-Hyb (Boehringer Mannheim) at a probe concentration of 25 μg/l at 50° C. The digoxigenin (DIG)-labeled probes were produced by PCR as described in detail earlier (Waldegger et al. (1997) PNAS 94: 4440-4445). For the autoradiography, the filters were exposed to an X-ray film (Kodak) for an average of 5 min.

For a further assay, the system named is biglycan expression. The assay is described as follows: Transcriptional regulation of biglycan (Northern blot). The class given is cell-based. Conditions: FIG. 2; for effect of TGFβ1 on biglycan expression in the presence of the NKCC inhibitor: TGFβ1-stimulated. The procedure: as §1
The next assay has as its target T1, h-sgk (Homo sapiens, UniProt O00141).
T1 construct: expressed in transfected cells; host or cells: Xenopus laevis oocytes (cRNA injection)
T1 sequence (O00141 1-431): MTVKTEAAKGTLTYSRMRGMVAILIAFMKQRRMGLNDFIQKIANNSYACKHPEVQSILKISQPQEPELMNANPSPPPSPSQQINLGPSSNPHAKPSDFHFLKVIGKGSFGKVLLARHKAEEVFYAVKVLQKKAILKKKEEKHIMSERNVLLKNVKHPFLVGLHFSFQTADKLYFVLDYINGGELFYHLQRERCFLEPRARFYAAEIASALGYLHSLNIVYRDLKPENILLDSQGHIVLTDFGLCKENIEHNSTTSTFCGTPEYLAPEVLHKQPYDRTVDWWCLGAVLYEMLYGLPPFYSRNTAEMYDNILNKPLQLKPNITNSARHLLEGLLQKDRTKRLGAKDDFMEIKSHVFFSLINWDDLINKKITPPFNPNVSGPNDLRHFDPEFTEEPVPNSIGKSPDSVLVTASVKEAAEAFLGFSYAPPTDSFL
The assay is described as follows: Two-electrode voltage clamp of ENaC current in oocytes coexpressing h-sgk. Type of assay: cell-based. Conditions: for activation of ENaC (Na+ channel current) by h-sgk: oocytes coexpressing ENaC and h-sgk, treated with kinase inhibitor, FIG. 4. The procedure: (§2) Dissection of Xenopus laevis, and the obtaining and treatment of the oocytes has been described in detail earlier (Busch et al. 1992). The oocytes were each injected with 1 ng of cRNA of NKCC, ENaC or MDEG with or without simultaneous injection of h-sgk. It was possible to carry out two-electrode voltage and current clamp experiments 2-8 days after the injection. Na^+ influx which could be inhibited by furosemide through the NKCC was measured by the ^22Na^+ uptake, which was determined with a scintillation counter, into the oocytes. Na^+ currents (ENaC) were filtered at 10 Hz and recorded with a pen recorder. The experiments were normally carried out on the second day after cRNA injection. The bath solution contained: 96 mM NaCl, 2 mM KCl, 1.8 mM CaCl2, 1 mM MgCl2 and 5 mM HEPES at pH 7.5 and the holding potential was −50 mV. The pH was adjusted by titration with HCl or NaOH in all the experiments. The flow rate of the bath liquid was set at 20 ml/min, which ensured a complete change of solution in the measurement chamber within 10-15 s. All the data are stated in the form of arithmetic means ±SEM.

The subject of the next assay is NKCC. The assay is described as follows: 22Na+ tracer flux (furosemide-inhibitable Na+ uptake) in oocytes expressing NKCC with or without h-sgk. Type of assay: cell-based, Xenopus laevis. The following applies: 22Na+ uptake. The procedure:
as §2

Turning to `CCCCCCCCCC(=O)O[C@@H]1[C@@H](C)[C@@]2(O)[C@@H](C=C(CO)C[C@@]3(O)C(=O)C(C)=C[C@@H]23)[C@@H]2C(C)(C)[C@]12OC(=O)CCCCCCCCC` [PDD, 4-alpha-phorbol 12,13-didecanoate], in the assay with h-sgk expression, the expression of h-sgk entry is recorded as “likewise stimulate”.

Regarding `CCCCNc1cc(C(=O)O)cc(S(N)(=O)=O)c1Oc1ccccc1` [bumetanide], the “effect of TGFβ1 on biglycan expression in the presence of the NKCC inhibitor” value with biglycan expression is recorded as “almost completely suppressed”.

In the case of `COc1ccc2c(c[n+](C)c3c4cc5c(cc4ccc23)OCO5)c1OC` [chelerythrine], on h-sgk, the “activation of ENaC (Na+ channel current) by h-sgk” value is “suppresses; also recorded: completely to suppress”.

With `NS(=O)(=O)c1cc(C(=O)O)c(NCc2ccco2)cc1Cl` [furosemide], the “effect of TGFβ1 on biglycan expression in the presence of the NKCC inhibitor” value with biglycan expression is “completely suppressed”. For the same molecule, in the assay with biglycan expression (fibroblasts), the “increased expression of the matrix proteins in fibroblasts” value is reported as “can be suppressed”. For the same molecule, the “Na+ influx in NKCC-injected oocytes” value in the assay on NKCC (NKCC alone, without h-sgk, FIG. 3 top) is “not inhibited”. Further, in the assay on NKCC (oocytes coexpressing h-sgk and NKCC, FIG. 3 below), the “increase in Na+ influx on coexpression of h-sgk with NKCC” value is “completely suppressed”.

On to `C[C@H](CCC(=O)O)C[C@H](C)C[C@H](C)C(=O)/C=C(\O)[C@H](C)C[C@H](C)C/C=C/[C@@H](C)[C@@H](O)[C@@H](C)[C@@H](O)C[C@@H]1CC[C@@](C)([C@H]2CC[C@@](C)([C@@H](C)O)O2)O1` [ionomycin], for which the expression of h-sgk result with h-sgk expression is listed as “likewise stimulate”.

Turning to `CN[C@@H]1C[C@H]2O[C@@](C)([C@@H]1OC)n1c3ccccc3c3c4c(c5c6ccccc6n2c5c31)C(=O)NC4` [staurosporine], the “activation of ENaC (Na+ channel current) by h-sgk” value at h-sgk is on record as “suppresses; also recorded: completely to suppress”.

As to TGFβ1: tumor growth factor β1, the expression of h-sgk entry in the assay on h-sgk expression was “stimulated”. For the same molecule, the expression of biglycan entry with biglycan expression is given as “stimulated”.

B1: trans-dominant inhibitory kinase: h-sgk modified by mutation: lysine in position 127 replaced by arginine (K127R); suppresses the catalytic function (protein, UniProt O00141 1-431, looked up, variant K127R)
Serine/threonine-protein …: MTVKTEAAKGTLTYSRMRGMVAILIAFMKQRRMGLNDFIQKIANNSYACKHPEVQSILKISQPQEPELMNANPSPPPSPSQQINLGPSSNPHAKPSDFHFLKVIGKGSFGKVLLARHKAEEVFYAVRVLQKKAILKKKEEKHIMSERNVLLKNVKHPFLVGLHFSFQTADKLYFVLDYINGGELFYHLQRERCFLEPRARFYAAEIASALGYLHSLNIVYRDLKPENILLDSQGHIVLTDFGLCKENIEHNSTTSTFCGTPEYLAPEVLHKQPYDRTVDWWCLGAVLYEMLYGLPPFYSRNTAEMYDNILNKPLQLKPNITNSARHLLEGLLQKDRTKRLGAKDDFMEIKSHVFFSLINWDDLINKKITPPFNPNVSGPNDLRHFDPEFTEEPVPNSIGKSPDSVLVTASVKEAAEAFLGFSYAPPTDSFL
For the molecule B1, the “stimulating effect of h-sgk coexpression on the ENaC-mediated Na+ current” value with h-sgk (coexpression of the trans-dominant inhibitory kinase in oocytes, FIG. 5) is reported as “can be suppressed”.
